Where a SMILES comes first, the peptide text is derived from it.
Molecular target: T1, human GLP-1 receptor (Homo sapiens, UniProt P43220)
T1 construct: expressed in transfected cells
Experiment: GLP-1 receptor potency assay (cAMP ALPHASCREEN, HEK293 cells stably expressing GLP-1 R)
Format: cell-based
Details: cAMP response, HEK293 cells expressing human GLP-1 R
Source text: One useful in vitro assay for measuring GLP-1 and GLP-2 receptor activity is quantitation of cAMP, i.e. 3′-5′-cyclic adenosine monophosphate, which is a second messenger essential in many biological processes, and one of the most ubiquitous mechanisms for regulating cellular functions.
The cDNA encoding the human glucagon-like peptide 1 receptor (GLP-1 R) (primary accession number P43220) was cloned from the cDNA BC112126 (MGC:138331/IMAGE:8327594). The DNA encoding the GLP-1-R was amplified by PCR using primers encoding terminal restriction sites for subcloning. The 5′-end primers additionally encoded a near Kozak consensus sequence to ensure efficient translation. […] The PCR products encoding the GLP-1-R were subcloned into a mammalian expression vector containing a neomycin (G418) resistance marker. The mammalian expression vectors encoding the GLP-1-R were transfected into HEK293 cells by a standard calcium phosphate transfection method. 48 hours post-transfection, cells were seeded for limited dilution cloning and selected with 1 mg/ml G418 in the culture medium. Following 3 weeks in G418 selection clones were picked and tested in a functional GLP-1 receptor potency assay as described below.
The cAMP ALPHASCREEN® assay from Perkin Elmer was used to quantitate the cAMP response to activation of the GLP1 and GLP2 receptor, respectively. […] Data from test compounds eliciting an increase in the intracellular level of cAMP were normalized relative to the positive and negative control (vehicle) to calculate the EC50 and maximal response from the concentration response curve.

T1 sequence (P43220 24-463): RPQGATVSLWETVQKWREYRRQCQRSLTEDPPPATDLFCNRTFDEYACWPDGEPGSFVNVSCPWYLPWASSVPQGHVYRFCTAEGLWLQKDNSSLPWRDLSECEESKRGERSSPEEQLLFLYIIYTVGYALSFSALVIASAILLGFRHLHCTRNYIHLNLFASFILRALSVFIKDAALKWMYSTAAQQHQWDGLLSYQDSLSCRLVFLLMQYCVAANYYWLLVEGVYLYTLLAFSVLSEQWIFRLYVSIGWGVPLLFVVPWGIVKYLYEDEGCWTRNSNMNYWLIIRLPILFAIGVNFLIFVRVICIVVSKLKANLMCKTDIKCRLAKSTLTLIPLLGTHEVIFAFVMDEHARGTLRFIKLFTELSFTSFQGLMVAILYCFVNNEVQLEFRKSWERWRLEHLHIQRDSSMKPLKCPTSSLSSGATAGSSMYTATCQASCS

Structure (SMILES)	EC50 [nM]
CC[C@H](C)[C@H](NC(=O)[C@H](Cc1ccccc1)NC(=O)[C@H](CC(=O)O)NC(=O)[C@H](CCCNC(=N)N)NC(=O)[C@H](C)NC(=O)[C@H](C)NC(=O)[C@H](CCC(N)=O)NC(=O)[C@H](CCCCNC(=O)COCCOCCNC(=O)[C@H](CCCCN)NC(=O)[C@H](CCC(=O)O)NC(=O)[C@H](CCCCN)NC(=O)CC[C@H](NC(=O)CCCCCCCCCCCCCCCCC(=O)O)C(=O)O)NC(=O)[C@H](CC(=O)O)NC(=O)[C@H](CC(C)C)NC(=O)[C@@H](NC(=O)[C@@H](NC(=O)[C@H](C)NC(=O)[C@H](CC(C)C)NC(=O)[C@H](CCC(=O)O)NC(=O)[C@H](CO)NC(=O)[C@H](CO)NC(=O)[C@H](Cc1ccccc1)NC(=O)[C@@H](NC(=O)CNC(=O)[C@H](CCC(=O)O)NC(=O)C(C)(C)NC(=O)[C@@H](N)Cc1c[nH]cn1)[C@@H](C)O)[C@@H](C)O)[C@@H](C)CC)C(=O)N[C@@H](C)C(=O)N[C@@H](Cc1c[nH]c2ccccc12)C(=O)N[C@@H](CC(C)C)C(=O)N[C@H](C(=O)N[C@@H](CCC(=O)O)C(=O)N[C@@H](Cc1c[nH]cn1)C(=O)N[C@@H](CCCCN)C(=O)N[C@H](C(=O)N[C@H](C(=O)N[C@@H](CC(=O)O)C(=O)O)[C@@H](C)O)[C@@H](C)CC)[C@@H](C)CC [Compound 49] (HELM PEPTIDE1{H.[Aib].E.G.T.F.S.S.E.L.A.T.I.L.D.K.Q.A.A.R.D.F.I.A.W.L.I.E.H.K.I.T.D}|PEPTIDE2{[O=C(O)CCCCCCCCCCCCCCCCC(=O)[*:2]].[gGlu].K.E.K.[O=C(COCCOCCN[*:1])[*:2]]}$PEPTIDE1,PEPTIDE2,16:R3-6:R2$$$V2.0)	0.27
CC[C@H](C)[C@H](NC(=O)[C@H](CC(C)C)NC(=O)[C@H](Cc1c[nH]c2ccccc12)NC(=O)[C@H](C)NC(=O)[C@@H](NC(=O)[C@H](Cc1ccccc1)NC(=O)[C@H](CC(=O)O)NC(=O)[C@H](CCCNC(=N)N)NC(=O)[C@H](C)NC(=O)[C@H](C)NC(=O)[C@H](CC(C)C)NC(=O)[C@H](CCCCNC(=O)CC[C@H](NC(=O)CCCCCCCCCCCCCCCCC(=O)O)C(=O)O)NC(=O)[C@H](CC(=O)O)NC(=O)[C@H](CC(C)C)NC(=O)[C@@H](NC(=O)[C@@H](NC(=O)[C@H](C)NC(=O)[C@H](CC(C)C)NC(=O)[C@H](CCC(=O)O)NC(=O)[C@H](CO)NC(=O)[C@@H](NC(=O)[C@H](Cc1ccccc1)NC(=O)[C@@H](NC(=O)CNC(=O)[C@H](CCC(=O)O)NC(=O)C(C)(C)NC(=O)[C@@H](N)Cc1c[nH]cn1)[C@@H](C)O)[C@@H](C)O)[C@@H](C)O)[C@@H](C)CC)[C@@H](C)CC)C(=O)N[C@@H](C)C(=O)N[C@@H](Cc1c[nH]cn1)C(=O)N[C@@H](CCCCN)C(=O)N[C@H](C(=O)N[C@H](C(=O)N[C@@H](CC(=O)O)C(=O)O)[C@@H](C)O)[C@@H](C)CC [Compound 15] (HELM PEPTIDE1{H.[Aib].E.G.T.F.T.S.E.L.A.T.I.L.D.K.L.A.A.R.D.F.I.A.W.L.I.A.H.K.I.T.D}|PEPTIDE2{[O=C(O)CCCCCCCCCCCCCCCCC(=O)[*:2]].[gGlu]}$PEPTIDE1,PEPTIDE2,16:R3-2:R2$$$V2.0)	0.25
